pEC50: −log10 of the molar value. “And” between values parts separate entries of the source, which are not always exact repeats. Equal entries are not always repeated. Where two headings read alike, the source gives them in different places.
Legend:
5-HT1A = biological target: T1, 5-HT1A (Homo sapiens, UniProt P08908); test: 5-HT receptor activity panel (Table 3); format: cell-based; conditions: Table 3
T1 sequence (P08908 1-422): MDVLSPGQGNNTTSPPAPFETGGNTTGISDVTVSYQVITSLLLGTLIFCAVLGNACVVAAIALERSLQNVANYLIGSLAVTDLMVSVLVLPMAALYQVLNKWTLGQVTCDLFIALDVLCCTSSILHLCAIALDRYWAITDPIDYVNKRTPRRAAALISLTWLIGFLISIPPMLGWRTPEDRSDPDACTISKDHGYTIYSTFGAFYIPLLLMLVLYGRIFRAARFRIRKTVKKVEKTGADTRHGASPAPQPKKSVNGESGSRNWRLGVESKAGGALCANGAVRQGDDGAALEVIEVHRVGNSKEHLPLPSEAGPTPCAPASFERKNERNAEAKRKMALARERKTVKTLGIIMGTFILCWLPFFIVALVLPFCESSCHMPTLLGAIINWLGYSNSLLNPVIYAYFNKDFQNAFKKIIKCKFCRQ

5-HT1D = 5-HT1D (Homo sapiens, UniProt P28221); test: 5-HT receptor activity panel (Table 3); format: cell-based; conditions: Table 3
Sequence of 5-HT1D (P28221 whole entry, species assumed): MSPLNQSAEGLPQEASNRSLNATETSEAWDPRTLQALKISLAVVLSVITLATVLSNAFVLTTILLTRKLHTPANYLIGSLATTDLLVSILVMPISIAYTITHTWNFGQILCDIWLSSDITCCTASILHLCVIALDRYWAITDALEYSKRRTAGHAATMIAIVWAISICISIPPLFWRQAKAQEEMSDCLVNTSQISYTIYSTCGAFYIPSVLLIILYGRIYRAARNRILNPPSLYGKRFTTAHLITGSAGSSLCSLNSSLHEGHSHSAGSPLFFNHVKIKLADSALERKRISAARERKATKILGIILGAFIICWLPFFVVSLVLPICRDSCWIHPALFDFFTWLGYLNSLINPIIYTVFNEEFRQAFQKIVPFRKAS

[1] = plasma and brain PK in mice; format: in vivo; conditions: mouse; for Kp: brain; for clearance: read-out: Cltot (converted); for half-life: read-out: T1/2 Vz (converted); for Vd: read-out: Vz
From the text: (§1) Table 7a and Table 7b summarize, among other things, the observed plasma and Brain P K properties in animals, and the observed plasma and Brain P K properties predicted in humans, for compound 109 in Table 7a and compound 93 for Table 7b: […]

[2] = plasma and brain PK in rat; format: in vivo; conditions: for Kp: brain; for clearance: read-out: Cltot (converted); for half-life: read-out: T1/2 Vz (converted); for Vd: read-out: Vz
From the text: as §1

plasma PK in dog = format: in vivo; conditions: for clearance / half-life / Vd: dog; for clearance: read-out: Cltot (converted); for half-life: read-out: T1/2 Vz (converted); for Vd: read-out: Vz
From the text: as §1

[3] = in vitro hepatocyte clearance, dog; format: in vitro ADME; conditions: for hepatocyte CLint / half-life: Dog hepatocytes; for hepatocyte CLint: read-out: In vitro Clint (μL/min/10^6 cells); for half-life: read-out: In vitro T1/2; for CLint scaled: dog, hepatocytes, read-out: Scale-up Clint
Description: (§2) Additional experimentation was performed on compound 109. Table 6 summarizes, among other things, the anticipated hepatic clearance of compound 109 in various species, as specified in Table 6 and as determined by calculating the in vitro hepatocyte clearance over time and scaling such rate with such species' hepatocyte count and the anticipated liver blood flow rate in such species.

hepatocyte [4] = test: in vitro hepatocyte clearance, dog; format: in vitro ADME; conditions: Dog
Description: as §2

5-HT4 = 5-HT4 (Homo sapiens, UniProt Q13639); test: 5-HT receptor activity panel (Table 3); format: cell-based; conditions: Table 3
Sequence of 5-HT4 (Q13639 whole entry, species assumed): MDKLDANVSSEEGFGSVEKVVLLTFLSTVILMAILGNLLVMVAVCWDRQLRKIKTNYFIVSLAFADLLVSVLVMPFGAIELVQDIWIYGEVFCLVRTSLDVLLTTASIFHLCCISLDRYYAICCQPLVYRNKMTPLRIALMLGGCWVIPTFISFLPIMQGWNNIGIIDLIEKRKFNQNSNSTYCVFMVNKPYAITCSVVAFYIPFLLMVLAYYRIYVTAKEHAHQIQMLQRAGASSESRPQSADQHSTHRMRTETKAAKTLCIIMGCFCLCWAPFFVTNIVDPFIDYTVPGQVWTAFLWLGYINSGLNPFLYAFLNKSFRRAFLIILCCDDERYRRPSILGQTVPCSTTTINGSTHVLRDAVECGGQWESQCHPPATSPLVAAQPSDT

5-HT2B receptor = biological target: T2, 5-HT2B receptor (Homo sapiens, UniProt P41595); test: 5-HT2B Gq dissociation BRET functional assay; format: cell-based; conditions: for 5-HT2B BRET Eff %: normalized to % 5-HT stimulation
T2 construct: expressed in transfected cells; host or cells: HEK293T
T2 sequence (P41595 whole entry): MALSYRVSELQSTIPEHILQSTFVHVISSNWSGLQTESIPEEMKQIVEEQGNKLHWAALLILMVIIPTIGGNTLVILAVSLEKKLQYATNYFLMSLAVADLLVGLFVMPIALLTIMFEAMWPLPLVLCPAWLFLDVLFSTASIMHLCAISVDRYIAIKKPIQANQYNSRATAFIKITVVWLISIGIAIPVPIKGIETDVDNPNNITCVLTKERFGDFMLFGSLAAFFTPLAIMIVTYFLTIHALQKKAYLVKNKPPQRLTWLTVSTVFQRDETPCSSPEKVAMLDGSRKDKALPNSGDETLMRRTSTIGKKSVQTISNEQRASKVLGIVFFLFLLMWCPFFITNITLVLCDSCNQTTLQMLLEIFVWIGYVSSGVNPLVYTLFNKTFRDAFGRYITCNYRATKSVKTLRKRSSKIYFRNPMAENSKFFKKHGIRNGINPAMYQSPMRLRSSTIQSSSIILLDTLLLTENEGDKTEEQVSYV

5-HT1B = 5-HT1B (Homo sapiens, UniProt P28222); test: 5-HT receptor activity panel (Table 3); format: cell-based; conditions: Table 3
Sequence of 5-HT1B (P28222 whole entry, species assumed): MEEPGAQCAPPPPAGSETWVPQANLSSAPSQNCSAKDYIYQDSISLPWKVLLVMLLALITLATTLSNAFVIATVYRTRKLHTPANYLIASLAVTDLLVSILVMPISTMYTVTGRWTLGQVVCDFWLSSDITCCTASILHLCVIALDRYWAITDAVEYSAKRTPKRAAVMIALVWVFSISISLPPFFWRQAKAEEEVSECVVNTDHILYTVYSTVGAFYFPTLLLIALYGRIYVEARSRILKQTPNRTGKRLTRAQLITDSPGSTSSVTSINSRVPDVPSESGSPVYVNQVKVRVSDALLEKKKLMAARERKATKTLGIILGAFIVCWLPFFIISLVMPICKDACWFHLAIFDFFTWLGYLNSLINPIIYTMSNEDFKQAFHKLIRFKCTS

[5] = in vitro hepatocyte clearance, human; format: in vitro ADME; conditions: Human hepatocytes; for hepatocyte CLint: read-out: In vitro Clint (μL/min/10^6 cells); for half-life: read-out: In vitro T1/2; for CLint scaled: read-out: Scale-up Clint
Description: as §2

hepatocyte [6] = test: in vitro hepatocyte clearance, human; format: in vitro ADME; conditions: Human
Description: as §2

[7] = tested on: olfactory bulbectomized rats; test: locomotor/behavioral activity in olfactory bulbectomized rats; format: in vivo, rat; conditions: single intraperitoneal dose, FIG. 5
Description: (§3) Additional experimentation was also done on compound 109. Namely, an intraperitoneal dose of up to 30 mg/kg of compound 109 and various reference compounds were delivered into healthy rat subjects and surgery induced abnormal rat subjects (olfactory bulbectomized rats). […] Without being bound by theory, it is believed that these observations are a result of long lasting neuroplasticity effects of compound 109 on surgery induced abnormal rat subjects. FIG. 5 summarizes the results of this experiment. Using psilocybin as a comparative psychedelic, the results of this experiment support the notion that compound 109 provides sustainable acute antidepressant effects. Note that “VEH” refers to vehicle, and “PSIL” refers to psilocybin, in FIG. 5.

[8] = tested on: α 1a, α 2a, Kappa (KOP), μ (MOP), 5-HT transporter (SERT); test: follow up functional assays on SafetyScreen44 hits
Description: Various compounds disclosed herein were subjected to an in vitro SafetyScreen44™ panel for identifying off-target activity. Compounds of interest that are identified in the panel are then tested in follow up functional assays to identify if such compounds have a significant off-target risk. […] It is predicted that other compounds share similar characteristics with compound 109 and also lack of the off-target activity.

healthy rat subjects = test: locomotor activity test in healthy rats; format: in vivo; conditions: intraperitoneal dose of up to 30 mg/kg
Description: as §3

SMILES | clearance ([1]; plasma) [mL/min/kg] | half-life ([1]; plasma) [min] | Vd ([1]; plasma) [L/kg] | clearance ([2]; rat, plasma) [mL/min/kg] | half-life ([2]; rat, plasma) [min] | Vd ([2]; rat, plasma) [L/kg] | clearance (plasma PK in dog) [mL/min/kg] | half-life (plasma PK in dog) [min] | Vd (plasma PK in dog) [L/kg] | hepatocyte CLint [3] [µL/min/1e6 cells] | half-life [3] [min] | CLint scaled [3] [mL/min/kg] | Predicted hepatic CL (hepatocyte [4]) [mL/min/kg] | 5-HT2B BRET Eff % (5-HT2B receptor; Table 2) | 5-HT2B Eff, % (5-HT2B receptor; Table 3 panel) [%] | 5-HT1B EC50, nM (5-HT1B) | hepatocyte CLint [5] [µL/min/1e6 cells] | half-life [5] [min] | CLint scaled [5] [mL/min/kg] | Predicted hepatic CL (hepatocyte [6]) [mL/min/kg] | other results
COc1cc(C(F)(F)F)ccc1CCNCc1ccccc1O [Cpd #93] | 197 | 54 | 15.1 | 127 | 82.8 | 15.2 | 53.1 | 99.6 | 7.7 | 337 | 4.11 | 2320 | 30.49 | 53% and 52% | 50 | Not active | 54.8 | 25.3 | 140 | 18.03 | 5-HT1A EC50, nM (5-HT1A): Not active; 5-HT1D EC50, nM (5-HT1D): Not active; Kp ([1]; read-out: Brain/plasma Ratio): 15.6; Kp ([2]; rat, read-out: Brain/plasma Ratio): 19.6; 5-HT4 EC50, nM (5-HT4): Not active; EC50 (5-HT2B receptor; 5-HT2B BRET EC50 (nM), Table 2, at least three replicate trials): 62.3 nM and 96.2 nM; EC50 (5-HT2B receptor; 5-HT2B EC50, nM, Table 3 panel): 64.2 nM
CSc1ccccc1CNCCc1ccc(C#N)cc1O [Cpd #109] | 286 | 36 | 14 | 53.4 | 126 | 9.37 | 39.7 | 78 | 4.33 | 199 | 6.96 | 1370 | 30.22 | 95% | 84 | Not active | 609 | 2.28 | 1550 | 20.43 | 5-HT1A Eff, % (5-HT1A): 3%; pEC50 (5-HT1A; read-out: 5-HT1A EC50): 5.37; 5-HT1D Eff, % (5-HT1D): 6%; pEC50 (5-HT1D; read-out: 5-HT1D EC50): 6.42; Kp ([1]; read-out: Brain Plasma AUC Ratio): 8.39; bioavailability ([1]; plasma, IM, read-out: IM f (%)): 144%; inhibition of abnormal behavioral activity [7]: significant and long lasting inhibition of abnormal behavioral activity; plasma t1/2 ([2]; healthy rat subjects (text b114)): less than an hour; bioavailability ([2]; plasma, rat, IM, read-out: IM f (%)): 92.8%; Kp ([2]; rat, read-out: Brain Plasma AUC Ratio): 2.18; Follow up studies (off-target activity) [8]: No significant; Follow up studies (off-target activity) ([8]; listed as compound 109): does not possess significant off-target activity; bioavailability (plasma PK in dog; Dog, IM, read-out: IM f (%)): 120%; Hepatic Extraction Ratio (E) (hepatocyte [4]): 0.98; 5-HT4 Eff, % (5-HT4): −3%; pEC50 (5-HT4; read-out: 5-HT4 EC50): 9.70; effect on normal locomotor activity (healthy rat subjects): no suggestion that an intraperitoneal dose of up to 30 mg/kg of such compound affects the normal locomotor activity; pEC50 (5-HT2B receptor; Table 2, at least three replicate trials, read-out: 5-HT2B BRET EC50): 5.50; pEC50 (5-HT2B receptor; Table 3 panel, read-out: 5-HT2B EC50): 5.51; Hepatic Extraction Ratio (E) (hepatocyte [6]): 0.99
